Reference: US20100216791A1, “PYRIDINYLQUINAZOLINAMINE DERIVATIVES AND THEIR USE AS B-RAF INHIBITORS” (ASTRAZENECA, priority 2006, published 2010)

Molecular target: Mutant B-Raf (V600E) enzyme (MT B-Raf) (Homo sapiens, UniProt P15056, V600E)
Experiment: biochemical
Settings: not given

Mutant B-Raf (V600E) enzyme (MT B-Raf), sequence (P15056 whole entry V600E): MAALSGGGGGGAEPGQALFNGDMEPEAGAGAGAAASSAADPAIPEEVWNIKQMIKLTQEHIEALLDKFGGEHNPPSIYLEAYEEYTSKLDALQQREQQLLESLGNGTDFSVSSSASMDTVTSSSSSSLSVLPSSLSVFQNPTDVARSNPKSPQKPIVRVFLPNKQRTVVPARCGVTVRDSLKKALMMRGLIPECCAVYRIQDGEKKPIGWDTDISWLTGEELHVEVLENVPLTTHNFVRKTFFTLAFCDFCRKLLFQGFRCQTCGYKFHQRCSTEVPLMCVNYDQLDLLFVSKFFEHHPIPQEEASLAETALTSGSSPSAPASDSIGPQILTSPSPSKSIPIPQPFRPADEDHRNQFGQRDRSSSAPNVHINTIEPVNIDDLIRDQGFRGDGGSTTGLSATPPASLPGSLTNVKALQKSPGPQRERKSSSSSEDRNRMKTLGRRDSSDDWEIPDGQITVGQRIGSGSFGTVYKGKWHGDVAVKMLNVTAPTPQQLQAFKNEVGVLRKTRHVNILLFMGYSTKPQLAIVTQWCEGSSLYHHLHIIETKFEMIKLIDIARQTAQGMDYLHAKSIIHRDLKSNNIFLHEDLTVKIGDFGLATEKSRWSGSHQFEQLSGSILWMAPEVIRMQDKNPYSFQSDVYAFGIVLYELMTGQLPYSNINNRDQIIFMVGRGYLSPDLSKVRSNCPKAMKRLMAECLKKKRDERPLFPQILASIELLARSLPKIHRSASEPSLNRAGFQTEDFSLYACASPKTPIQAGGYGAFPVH

Row | SMILES | IC50
1 | Cc1cc(Nc2ncc3cc(-c4ccncc4)ccc3n2)ccc1C(=O)N(C)C [Example 50] | 150 nM

Same assay, conditions: B-Raf Alpha screen comparable to the described assay; phosphorylation of biotinylated HIS-MEK-AVI; results may be an average of two or more results

Row | SMILES | IC50
2 | O=C(NCCCn1ccnc1)c1ccc(Nc2ncc3cc(-c4ccncc4)ccc3n2)cc1 [Example 35, N-[3-(1H-Imidazol-1-yl)propyl]-4-[(6-pyridin-4-ylquinazolin-2-yl)amino]benzamide] | 110 nM
3 | c1cc(-c2ccc3nc(Nc4ccc(CNCCN5CCOCC5)cc4)ncc3c2)ccn1 [Example 70, N-(4-{[(2-Morpholin-4-ylethyl)amino]methyl}phenyl)-6-pyridin-4-ylquinazolin-2-amine] | 74 nM
4 | COCCNC(=O)c1ccnc(Nc2ncc3cc(-c4ccncc4)ccc3n2)c1 [Example 37, N-(2-Methoxyethyl)-2-[(6-pyridin-4-ylquinazolin-2-yl)amino]isonicotinamide] | 1700 nM
5 | c1cc(-c2ccc3nc(Nc4ccc5c(c4)OCCO5)ncc3c2)ccn1 [Example 45, N-(2,3-Dihydro-1,4-benzodioxin-6-yl)-6-pyridin-4-ylquinazolin-2-amine] | 300 nM
6 | O=S(=O)(c1cccc(Nc2ncc3cc(-c4ccncc4)ccc3n2)c1)N1CCOCC1 [Example 102, N-[3-(Morpholin-4-ylsulfonyl)phenyl]-6-pyridin-4-ylquinazolin-2-amine] | 520 nM
7 | CC(C)(C)OC(=O)NCCCNC(=O)c1ccc(Nc2ncc3cc(-c4ccncc4)ccc3n2)cc1 [Example 26, tert-Butyl [3-({4-[(6-pyridin-4-ylquinazolin-2-yl)amino]benzoyl}amino)propyl]carbamate] | 550 nM
8 | Fc1cccc(Nc2ncc3cc(-c4ccncc4)ccc3n2)c1 [Example 98, N-(3-Fluorophenyl)-6-pyridin-4-ylquinazolin-2-amine] | 630 nM
9 | CNCCNC(=O)c1cccc(Nc2ncc3cc(-c4ccncc4)ccc3n2)n1 [Example 65, N-[2-(Methylamino)ethyl]-6-[(6-pyridin-4-ylquinazolin-2-yl)amino]pyridine-2-carboxamide] | 1000 nM
10 | c1cc(-c2ccc3nc(Nc4ccc(OCCN5CCCCC5)cc4)ncc3c2)ccn1 [Example 42, N-[4-(2-Piperidin-1-ylethoxy)phenyl]-6-pyridin-4-ylquinazolin-2-amine] | 230 nM
11 | CC(C)(C)OC(=O)N1CCC(CNC(=O)c2ccc(Nc3ncc4cc(-c5ccncc5)ccc4n3)cc2)CC1 [Example 24, tert-Butyl 4-[({4-[(6-pyridin-4-ylquinazolin-2-yl)amino]benzoyl}amino)methyl]piperidine-1-carboxylate] | 520 nM
12 | c1cc(-c2ccc3nc(Nc4ccc5c(c4)OCO5)ncc3c2)ccn1 [Example 44, N-1,3-Benzodioxol-5-yl-6-pyridin-4-ylquinazolin-2-amine] | 420 nM
13 | COCCNC(=O)c1ccc(Nc2ncc3cc(-c4ccncc4)ccc3n2)c(OC)c1 [Example 114] | 6800 nM
14 | O=C(NCCN1CCOCC1)c1ccc(Nc2ncc3cc(-c4ccncc4)ccc3n2)cc1 [Example 5, N-(2-Morpholin-4-ylethyl)-4-[(6-pyridin-4-ylquinazolin-2-yl)amino]benzamide] | 180 nM
15 | O=C(NCC1CCCCN1)c1ccc(Nc2ncc3cc(-c4ccncc4)ccc3n2)cc1 (stereo not drawn) [Example 68, N-Piperidin-2-ylmethyl-4-[(6-pyridin-4-ylquinazolin-2-yl)amino]benzamide] | 110 nM
16 | O=S(=O)(c1ccc(Nc2ncc3cc(-c4ccncc4)ccc3n2)cc1)N1CCOCC1 [Example 94, N-[4-(Morpholin-4-ylsulfonyl)phenyl]-6-pyridin-4-ylquinazolin-2-amine] | 300 nM
17 | CC(c1ccc(Nc2ncc3cc(-c4ccncc4)ccc3n2)cc1)N1CCCC1 (stereo not drawn) [Example 131, 6-(Pyridin-4-yl)-N-(4-(1-(pyrrolidin-1-yl)ethyl)phenyl)quinazolin-2-amine] | 19 nM
18 | O=C(NCC1CCCO1)c1ccc(Nc2ncc3cc(-c4ccncc4)ccc3n2)cc1 (stereo not drawn) [Example 14, 4-[(6-Pyridin-4-ylquinazolin-2-yl)amino]-N-(tetrahydrofuran-2-ylmethyl)benzamide] | 210 nM
19 | CC(NCC1CC1)c1ccc(Nc2ncc3cc(-c4ccncc4)ccc3n2)cc1 (stereo not drawn) [Example 136, N-(4-{1-[(Cyclopropylmethyl)amino]ethyl}phenyl)-6-pyridin-4-ylquinazolin-2-amine] | 37 nM
20 | CN1CCCN(C(=O)c2ccc(Nc3ncc4cc(-c5ccncc5)ccc4n3)cc2)CC1 [Example 116, N-{4-[(4-Methyl-1,4-diazepan-1-yl)carbonyl]phenyl}-6-pyridin-4-ylquinazolin-2-amine] | 63 nM
21 | O=C(NCCCN1CCOCC1)c1ccc(Nc2ncc3cc(-c4ccncc4)ccc3n2)cc1 [Example 22, N-(3-Morpholin-4-ylpropyl)-4-[(6-pyridin-4-ylquinazolin-2-yl)amino]benzamide] | 91 nM
22 | CCCCNS(=O)(=O)c1cccc(Nc2ncc3cc(-c4ccncc4)ccc3n2)c1 [Example 84, N-Butyl-3-[(6-pyridin-4-ylquinazolin-2-yl)amino]benzenesulfonamide] | 820 nM
23 | O=C(NCCc1ccccn1)c1ccc(Nc2ncc3cc(-c4ccncc4)ccc3n2)cc1 [Example 20, N-(2-Pyridin-2-ylethyl)-4-[(6-pyridin-4-ylquinazolin-2-yl)amino]benzamide] | 250 nM
24 | CN(CCCNC(=O)c1ccc(Nc2ncc3cc(-c4ccncc4)ccc3n2)cc1)C(=O)OC(C)(C)C [Example 13, tert-Butyl methyl[3-({4-[(6-pyridin-4-ylquinazolin-2-yl)amino]benzoyl}amino)propyl]carbamate] | 310 nM
25 | COCCNC(=O)c1ccc(Nc2ncc3cc(-c4ccnc(OC)c4)ccc3n2)cc1 [Example 115] | 520 nM
26 | Cc1nc2cc(Nc3ncc4cc(-c5ccncc5)ccc4n3)ccc2o1 [Example 109, N-(2-Methyl-1,3-benzoxazol-5-yl)-6-pyridin-4-ylquinazolin-2-amine] | 940 nM

Second part, the compound after the results:

Row | IC50 | SMILES
27 | 230 nM | COC(=O)c1ccc(Nc2ncc3cc(-c4ccncc4)ccc3n2)cc1 [Example 9, Methyl 4-[(6-pyridin-4-ylquinazolin-2-yl)amino]benzoate]
28 | 36 nM | CC(c1ccc(Nc2ncc3cc(-c4ccncc4)ccc3n2)cc1)N(C)C (single isomer, unassigned) [Example 139]
29 | 46 nM | CC(c1ccc(Nc2ncc3cc(-c4ccncc4)ccc3n2)cc1)N(C)C (stereo not drawn) [Example 133]
30 | 22 nM | COCCCNC(C)c1ccc(Nc2ncc3cc(-c4ccncc4)ccc3n2)cc1 (stereo not drawn) [Example 55, N-(4-{1-[(3-Methoxypropyl)amino]ethyl}phenyl)-6-pyridin-4-ylquinazolin-2-amine]
31 | 160 nM | CC(CN(C)C)NCc1ccc(Nc2ncc3cc(-c4ccncc4)ccc3n2)cc1 (stereo not drawn) [Example 74, N^1,N^1-Dimethyl-N^2-{4-[(6-pyridin-4-ylquinazolin-2-yl)amino]benzyl}propane-1,2-diamine]
32 | 82 nM | CN(C)CCCNC(=O)c1ccc(Nc2ncc3cc(-c4ccncc4)ccc3n2)cc1 [Example 31, N-[3-(Dimethylamino)propyl]-4-[(6-pyridin-4-ylquinazolin-2-yl)amino]benzamide]
33 | 100 nM | O=C(NCC(O)CO)c1ccc(Nc2ncc3cc(-c4ccncc4)ccc3n2)cc1 (stereo not drawn) [Example 61, N-(2,3-Dihydroxypropyl)-4-[(6-pyridin-4-ylquinazolin-2-yl)amino]benzamide]
34 | 29 nM | CC(c1ccc(Nc2ncc3cc(-c4ccncc4)ccc3n2)cc1)N(C)CCCO (stereo not drawn) [Example 135]
35 | 730 nM | CC(C)(C#N)c1ccc(Nc2ncc3cc(-c4ccncc4)ccc3n2)cc1 [Example 2, 2-Methyl-2-{4-[(6-pyridin-4-ylquinazolin-2-yl)amino]phenyl}propanenitrile]
36 | 93 nM | NCCCNC(=O)c1ccc(Nc2ncc3cc(-c4ccncc4)ccc3n2)cc1 [Example 62, N-(3-Aminopropyl)-4-[(6-pyridin-4-ylquinazolin-2-yl)amino]benzamide]
37 | 1900 nM | CN(C)c1ccc(Nc2ncc3cc(-c4ccncc4)ccc3n2)cc1 [Example 107, N,N-Dimethyl-N′-(6-pyridin-4-ylquinazolin-2-yl)benzene-1,4-diamine]
38 | 92 nM | CCN(CCO)c1ccc(Nc2ncc3cc(-c4ccncc4)ccc3n2)cc1 [Example 92, 2-(Ethyl{4-[(6-pyridin-4-ylquinazolin-2-yl)amino]phenyl}amino)ethanol]
39 | 1100 nM | FC(F)(F)Oc1ccc(Nc2ncc3cc(-c4ccncc4)ccc3n2)cc1 [Example 99, 6-Pyridin-4-yl-N-[4-(trifluoromethoxy)phenyl]quinazolin-2-amine]
40 | 66 nM | OCc1ccc(Nc2ncc3cc(-c4ccncc4)ccc3n2)cc1 [Example 78, {4-[(6-Pyridin-4-ylquinazolin-2-yl)amino]phenyl}methanol]
41 | 36 nM | CC(NCCCO)c1ccc(Nc2ncc3cc(-c4ccncc4)ccc3n2)cc1 (stereo not drawn) [Example 58, 3-[(1-{4-[(6-Pyridin-4-ylquinazolin-2-yl)amino]phenyl}ethyl)amino]propan-1-ol]
42 | 98 nM | NCCNC(=O)c1ccc(Nc2ncc3cc(-c4ccncc4)ccc3n2)cc1 [Example 63, N-(2-Aminoethyl)-4-[(6-pyridin-4-ylquinazolin-2-yl)amino]benzamide]
43 | 12 nM | CCCNC(C)c1ccc(Nc2ncc3cc(-c4ccncc4)ccc3n2)cc1 (single isomer, unassigned) [Example 142]
44 | 99 nM | CCN(CCO)Cc1ccc(Nc2ncc3cc(-c4ccncc4)ccc3n2)cc1 [Example 77, 2-(Ethyl{4-[(6-pyridin-4-ylquinazolin-2-yl)amino]benzyl}amino)ethanol]
45 | 47 nM | CCCNC(C)c1ccc(Nc2ncc3cc(-c4ccncc4)ccc3n2)cc1 (stereo not drawn) [Example 138]
46 | 83 nM | CN(C)C(=O)c1ccc(Nc2ncc3cc(-c4ccncc4)ccc3n2)cc1 [Example 30, N,N-Dimethyl-4-[(6-pyridin-4-ylquinazolin-2-yl)amino]benzamide]
47 | 450 nM | CCOc1ccc(Nc2ncc3cc(-c4ccncc4)ccc3n2)cc1 [Example 97, N-(4-Ethoxyphenyl)-6-pyridin-4-ylquinazolin-2-amine]
48 | 35 nM | CC(c1ccc(Nc2ncc3cc(-c4ccncc4)ccc3n2)cc1)N(C)CCO (stereo not drawn) [Example 134]
